Measurements taken from EPA's CvTdb concentration-time database.

Assays:
Rat [1] = experiment: concentration in kidney after dosing; details: 0.5 h; dosed: Potassium Perfluorobutane Sulfonate; 20 mg/kg; oral; Female; Harlan Sprague Dawley
Rat [2] = experiment: concentration in kidney after dosing; details: 3 h; dosed: Potassium Perfluorobutane Sulfonate; 20 mg/kg; oral; Female; Harlan Sprague Dawley
Rat [3] = experiment: concentration in plasma after dosing; details: dosed: Potassium Perfluorobutane Sulfonate, 20 mg/kg, oral, Male, Harlan Sprague Dawley
Rat [4] = experiment: concentration in plasma after dosing; details: 1.5 h; dosed: Potassium Perfluorobutane Sulfonate; 20 mg/kg; oral; Male; Harlan Sprague Dawley
rat [5] = experiment: concentration in adipose after dosing (ugEq/g tissue); details: dosed: benzo[a]pyrene, iv, male, Wistar
Rat [6] = experiment: concentration in plasma after dosing; details: dosed: 2-Hydroxy-4-methoxybenzophenone, 250 mg/kg, oral, Male, F344
Mouse [7] = experiment: concentration in plasma after dosing; details: 0.25 h; dosed: 2-Hydroxy-4-methoxybenzophenone; 50 mg/kg; iv; Female; B6C3F1
Mouse [8] = experiment: concentration in plasma after dosing; details: 10 min; dosed: 2-Hydroxy-4-methoxybenzophenone; 250 mg/kg; oral; Female; B6C3F1
Mouse [9] = experiment: concentration in plasma after dosing; details: 2 h; dosed: 2-Hydroxy-4-methoxybenzophenone; 500 mg/kg; oral; Male; B6C3F1
rat [10] = experiment: amount in expired air after dosing (umol); details: dosed: methanol, 100 mg/kg, iv, male, CDF(F344)/CrlBR
Rat [11] = experiment: concentration in plasma after dosing; details: dosed: 678-39-7, 40 mg/kg, iv, Male, F344
Rat [12] = experiment: concentration in kidney after dosing; details: 12 h; dosed: Fluorotelomer alcohol 8+2; 80 mg/kg; oral; Female; Harlan Sprague Dawley
Rat [13] = experiment: concentration in plasma after dosing; details: dosed: 678-39-7, 12 mg/kg, iv, Male, F344
Rat [14] = experiment: concentration in brain after dosing; details: 3 h; dosed: Perfluorooctanoic acid; 80 mg/kg; oral; Female; Harlan Sprague Dawley
Rat [15] = experiment: concentration in plasma after dosing; details: 5 min; dosed: 678-39-7; 12 mg/kg; iv; Male; F344
Rat [16] = experiment: concentration in liver after dosing; details: 6 h; dosed: Perfluorooctanoic acid; 12 mg/kg; oral; Male; Harlan Sprague Dawley
Rat [17] = experiment: concentration in kidney after dosing; details: 12 h; dosed: Perfluorooctanoic acid; 80 mg/kg; oral; Female; Harlan Sprague Dawley
Rat [18] = experiment: concentration in liver after dosing; details: 24 h; dosed: Perfluorooctanoic acid; 12 mg/kg; oral; Male; Harlan Sprague Dawley
Rat [19] = experiment: concentration in liver after dosing; details: 6 h; dosed: Perfluorooctanoic acid; 80 mg/kg; oral; Female; Harlan Sprague Dawley
Rat [20] = experiment: concentration in plasma after dosing; details: dosed: 678-39-7, 12 mg/kg, iv, Male, F344; remark: listed apart in the source
Rat [21] = experiment: concentration in liver after dosing; details: 192 h; dosed: Perfluorooctanoic acid; 12 mg/kg; oral; Male; Harlan Sprague Dawley
Rat [22] = experiment: concentration in liver after dosing; details: 1 h; dosed: Fluorotelomer alcohol 8+2; 24 mg/kg; oral; Male; Harlan Sprague Dawley
Rat [23] = experiment: concentration in liver after dosing; details: 0.5 h; dosed: Fluorotelomer alcohol 8+2; 80 mg/kg; oral; Female; Harlan Sprague Dawley
Rat [24] = experiment: concentration in plasma after dosing; details: 2 min; dosed: Nitrite; 80 mg/kg; oral; Female; F344
Rat [25] = experiment: concentration in plasma after dosing; details: dosed: Nitrite, 80 mg/kg, oral, Female, F344
Rat [26] = experiment: concentration in plasma after dosing; details: dosed: Nitrite, 80 mg/kg, oral, Female, F344; remark: listed apart in the source

O=S(=O)([O-])C(F)(F)C(F)(F)C(F)(F)C(F)(F)F.[K+] [Potassium Perfluorobutane Sulfonate]
Details | concentration in kidney [ng/g] | concentration in plasma [ng/mL]
Rat [1] | 26700 | –
Rat [2] | 18600 | –
Rat [4] | – | 70000

Rat [3]
Details | concentration in plasma [ng/mL]
0.25 h | 24800
24 h | 848

c1ccc2c(c1)cc1ccc3cccc4ccc2c1c34 [benzo[a]pyrene]
concentration in adipose, rat [5]
Details | 2 mg/kg | 6 mg/kg | 15 mg/kg
0.5 h | 2.77 | 2.29 | 8.6
0.75 h | 2.4 | 4.54 | 13.4
1 h | 3.86 | 3.99 | 9.76
1.5 h | 2.58 | 5.25 | 14.8
2 h | 3.96 | 3.37 | 17.1
3 h | 3.29 | 2.88 | 19.8
4 h | 2.96 | 2.38 | 15.4
5 h | 3.03 | 3.88 | 27.8
5 min | 1.06 | 0.37 | 1.47
6 h | 2.28 | 4.26 | 15.1
8 h | 3.13 | 4.09 | 17.4
10 min | 1.22 | 0.81 | 2.73
20 min | 1.82 | 2.04 | 5.65
24 h | 1.38 | – | 11.1
32 h | 1.46 | 1.02 | 5.85

COc1ccc(C(=O)c2ccccc2)c(O)c1 [2-Hydroxy-4-methoxybenzophenone]
Rat [6]
Details | concentration in plasma [ng/mL]
3 h | 71.3
10 min | 35.9

Details | concentration in plasma [ng/mL]
Mouse [7] | 5560
Mouse [8] | 625
Mouse [9] | 90.1

CO [methanol]
rat [10]
Details | amount in expired air
0.5482 h | 3.95
1.003 h | 4.75
1.458 h | 5.56
1.963 h | 7.78
2.999 h | 10.5
4.439 h | 14.9
5.98 h | 17.6
8.026 h | 18.8
10.01 h | 19.4
12.02 h | 20.1
15.07 h | 19.5

O=C(O)C(F)(F)C(F)(F)C(F)(F)C(F)(F)C(F)(F)C(F)(F)C(F)(F)F [Perfluorooctanoic acid]
Details | concentration in plasma [ng/mL]
Rat [11], 0.25 h | 264000
Rat [11], 6 h | 108000
Rat [13], 0.5 h | 210
Rat [13], 9 h | 521
Rat [20], 1 h | 378
Rat [20], 6 h | 480

Details | concentration in brain [ng/g] | concentration in kidney [ng/g] | concentration in liver [ng/g] | concentration in plasma [ng/mL]
Rat [12] | – | 626 | – | –
Rat [14] | 3490 | – | – | –
Rat [15] | – | – | – | 35.2
Rat [16] | – | – | 57200 | –
Rat [17] | – | 67800 | – | –
Rat [18] | – | – | 62500 | –
Rat [19] | – | – | 130000 | –
Rat [21] | – | – | 46900 | –
Rat [22] | – | – | 535 | –
Rat [23] | – | – | 470 | –

O=N[O-] [Nitrite]
Details | concentration in plasma [ng/mL]
Rat [24] | 3900

concentration in plasma [ng/mL]
Details | 0.5 h | 1 h | 2 h | 4 h
Rat [25] | – | 21600 | 13000 | –
Rat [26] | 20500 | – | – | 4900
